Values of other authors in article PMC10590117 (International Journal of Nanomedicine, 2023).

Conditions: humans

COc1cc(/C=C/C(=O)CC(=O)/C=C/c2ccc(O)c(OC)c2)ccc1O [curcumin, Curcumin]
Peroral bioavailability: ~1%
